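Following 48 hours of exposure in 96-well plates, responses at five concentrations were used to interpolate endpoints linearly. The concentration for 50% growth inhibition is given as GI50.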 Active and inactive are the calls of the source. Cut-off read from the data, not from the text of the source: active = GI50 up to about 1.1 µM and inactive = higher.
Legend:
Assay in all cases: NCI anticancer screen, dose series, 48 h
[1] = test system: COLO 205
[2] = test system: A498
[3] = test system: MDA-MB-231
[4] = test system: Malme-3M
[5] = test system: SN12C
[6] = test system: SK-MEL-2
[7] = test system: NCI-H226
[8] = test system: HCT-15
[9] = test system: UACC-62
[10] = test system: UO-31
[11] = test system: HCT-116
[12] = test system: HCC 2998
[13] = test system: MDA-MB-435
[14] = test system: SF-268
[15] = test system: NCI-H522
[16] = test system: SF-295
[17] = test system: PC-3
[18] = test system: NCI-H460
[19] = test system: 786-0
[20] = test system: DU-145
[21] = test system: OVCAR-3
[22] = test system: KM12
[23] = test system: HOP-62
[24] = test system: A549
[25] = test system: SK-OV-3
[26] = test system: LOX IMVI
[27] = test system: TK-10
[28] = test system: Hs-578T
[29] = test system: HT-29
[30] = test system: ACHN
[31] = test system: UACC-257
[32] = test system: RXF 393
[33] = test system: NCI/ADR-RES
[34] = test system: MDA-N
[35] = test system: U-251
[36] = test system: SK-MEL-5
[37] = test system: SNB-75
[38] = test system: NCI-H23
[39] = test system: M14
[40] = test system: SNB-19
[41] = test system: T47D
[42] = test system: SF-539
[43] = test system: BT-549
[44] = test system: MCF7
[45] = test system: CAKI-1
[46] = test system: RPMI-8226
[47] = test system: SW-620
[48] = test system: OVCAR-8
[49] = test system: SK-MEL-28
[50] = test system: OVCAR-5
[51] = test system: OVCAR-4
[52] = test system: IGROV-1
[53] = test system: SR
[54] = test system: K562
[55] = test system: EKVX
[56] = test system: HOP-92
[57] = test system: HL-60
[58] = test system: MOLT-4

For `CN(C)/C=C/c1nnc([N+](=O)[O-])s1`, the GI50 [1] was 3580 nM (inactive), the GI50 [2] was 32000 nM (inactive) and the GI50 [3] was 18200 nM (inactive). For the same compound, the GI50 [4] was 4220 nM (inactive), the GI50 [5] was 18800 nM (inactive) and the GI50 [6] was 17200 nM (inactive). For the same compound, the GI50 [7] was 20500 nM (inactive), the GI50 [8] was 12000 nM and the GI50 [9] was 16400 nM (inactive). For the same compound, the GI50 [10] was 15300 nM (inactive), the GI50 [11] was 5940 nM (inactive) and the GI50 [12] was 17300 nM (inactive). The GI50 [13] was 3690 nM (inactive), the GI50 [14] was 14600 nM (inactive) and the GI50 [15] was 1660 nM (inactive). For the same compound, the GI50 [16] was 13800 nM (inactive), the GI50 [17] was 4950 nM (inactive) and the GI50 [18] was 11600 nM (inactive). The GI50 [19] was 11300 nM (inactive), the GI50 [20] was 15200 nM (inactive) and the GI50 [21] was 2650 nM (inactive). The GI50 [22] was 7730 nM (inactive), the GI50 [23] was 22800 nM (inactive) and the GI50 [24] was 19900 nM (inactive). For the same compound, the GI50 [25] was 20700 nM (inactive), the GI50 [26] was 2690 nM (inactive) and the GI50 [27] was 25900 nM (inactive). For the same compound, the GI50 [28] was 14500 nM (inactive), the GI50 [29] was 3570 nM (inactive) and the GI50 [30] was 15500 nM (inactive). The GI50 [31] was 14200 nM (inactive), the GI50 [32] was 14700 nM (inactive) and the GI50 [33] was 16500 nM (inactive). For the same compound, the GI50 [34] was 4280 nM (inactive), the GI50 [35] was 17700 nM (inactive) and the GI50 [36] was 12000 nM (inactive). For the same compound, the GI50 [37] was 23900 nM (inactive), the GI50 [38] was 19300 nM (inactive) and the GI50 [39] was 14600 nM (inactive). The GI50 [40] was 26300 nM (inactive), the GI50 [41] was 15300 nM (inactive) and the GI50 [42] was 8790 nM (inactive). The GI50 [43] was 17900 nM (inactive), the GI50 [44] was 2170 nM (inactive) and the GI50 [45] was 18200 nM (inactive). For the same compound, the GI50 [46] was < 10 nM (active), the GI50 [47] was 16800 nM (inactive) and the GI50 [48] was 17100 nM (inactive).
`C[C@]12CC[C@H]3[C@@H](CC[C@]4(O)C[C@@H](O)CC[C@]34/C=N/O)[C@@]1(O)CC[C@@H]2C1=COC(=O)C1` was tested, and the GI50 [1] was 474 nM (active), the GI50 [2] was 92.9 nM (active) and the GI50 [3] was 589 nM (active). For the same compound, the GI50 [4] was 169 nM (active), the GI50 [5] was 251 nM (active) and the GI50 [6] was 255 nM (active). The GI50 [49] was 482 nM (active), the GI50 [7] was 391 nM (active) and the GI50 [8] was 158 nM. For the same compound, the GI50 [9] was 303 nM (active), the GI50 [10] was 112 nM (active) and the GI50 [11] was 40.3 nM (active). For the same compound, the GI50 [12] was 251 nM (active), the GI50 [13] was 257 nM (active) and the GI50 [50] was 318 nM (active). The GI50 [14] was 72.8 nM (active), the GI50 [15] was 32.3 nM (active) and the GI50 [16] was 54.5 nM (active). For the same compound, the GI50 [17] was 149 nM (active), the GI50 [51] was 60.8 nM (active) and the GI50 [18] was 40.3 nM (active). The GI50 [19] was 102 nM (active), the GI50 [20] was 63.7 nM (active) and the GI50 [21] was 47.2 nM (active). For the same compound, the GI50 [22] was 318 nM (active), the GI50 [23] was 102 nM (active) and the GI50 [24] was 33.6 nM (active). For the same compound, the GI50 [52] was 136 nM (active), the GI50 [25] was 43.6 nM (active) and the GI50 [26] was 136 nM (active). For the same compound, the GI50 [53] was 50.4 nM (active), the GI50 [27] was 84.5 nM (active) and the GI50 [28] was 112 nM (active). For the same compound, the GI50 [29] was 146 nM (active), the GI50 [54] was 120 nM (active) and the GI50 [30] was 40.4 nM (active). The GI50 [55] was 100 nM (active), the GI50 [56] was 200 nM (active) and the GI50 [31] was 299 nM (active). For the same compound, the GI50 [32] was 31.8 nM (active), the GI50 [33] was 141 nM (active) and the GI50 [34] was 191 nM (active). For the same compound, the GI50 [35] was 212 nM (active), the GI50 [36] was 58.3 nM (active) and the GI50 [37] was 332 nM (active). For the same compound, the GI50 [38] was 64.4 nM (active), the GI50 [39] was 289 nM (active) and the GI50 [40] was 673 nM (active). The GI50 [41] was 317 nM (active), the GI50 [42] was 104 nM (active) and the GI50 [57] was 131 nM (active). For the same compound, the GI50 [58] was 27.2 nM (active), the GI50 [43] was 67.5 nM (active) and the GI50 [45] was 36.3 nM (active). The GI50 [46] was 258 nM (active), the GI50 [47] was 191 nM (active) and the GI50 [48] was 154 nM (active).

From ChEMBL document CHEMBL1201862, “PubChem BioAssay data set” (2004)
